Test results published in US7572770B2, “Use of an interleukin 1 receptor antagonist and/or pyrrolidinedithiocarbamate for the treatment or prophylaxis of type 2 diabetes” (University of Zurich, priority 2002, dated 2009).

Legend:
human islets = experiment: Insulin release and content of human islets, leptin/siRNA study; assay type: cell-based
Description: (§1) Islet isolation and cell culture. Islets were isolated from pancreases of ten organ donors at the Department of Surgery, University of Geneva Medical Center, as described (32-34). The islet purity was >95%, as judged by dithizone staining (if this degree of purity was not primarily achieved by routine isolation, islets were handpicked). […] For long-term in vitro studies, the islets were cultured on extracellular matrix-coated plates derived from bovine corneal endothelial cells (Novamed Ltd., Jerusalem, Israel), allowing the cells to attach to the dishes and spread, preserving their functional integrity (7;35). Islets were cultured in CMRL 1066 medium containing 100 U/ml penicillin, 100 μg/ml streptomycin and 10% fetal calf serum (Invitrogen Corporation, Paisley, U.K.), hereafter referred to as culture medium. Two days after plating, when most islets were attached and began to flatten, the medium was changed to culture medium containing 5.5, 11.1 or 33.3 mM glucose. In some experiments, islets were additionally cultured with 5, 10 or 500 nM rh leptin (PeproTech, London, UK), 500 ng/ml rh IL-1Ra (R&D Systems Inc., Minneapolis, Minn.) or 50 nM small interfering RNA (siRNA) as described below.
(§2) RNA interference. RNAs of 21 nucleotides, designed to target human IL-1Ra (5′AUCUGCAGAGGCCUCCGCAtt3′/5′UGCGGAGGCCUCUGCAGAUtt3′) and scrambled siRNA were synthesized by Ambion (Austin, Tex.). siRNAs were transfected using SiPortAmine™ according to the manufacturer's instructions (Ambion).
Insulin release and content. To determine acute insulin release in response to glucose stimulation, islets were washed in Kreb's ringer bicarbonate buffer (KRB-Hepes, pH 7.4: 4.8 mM KCl, 134 mM NaCl, 5 mM NaHCO3, 1.2 mM MgSO4, 1.2 mM KH2PO4, 1 mM CaCl2, 0.5% BSA, 10 mM HEPES) containing 3.3 mM glucose and pre-incubated for 30 min in the same buffer. The KRB was then discarded and replaced by fresh buffer containing 3.3 mM glucose for 1 h for basal secretion, followed by an additional 1 h of incubation in KRB containing 16.7 mM glucose. Supernatants were collected and frozen for insulin assays. Thereafter, islets were washed with PBS and extracted with 0.18 N HCl in 70% ethanol for 24 h at 4° C. The acid-ethanol extracts were collected for determination of insulin content. Insulin was determined by a human insulin RIA kit (CIS bio international, Gif-Sur-Yvette, France).

human islets β-cells = experiment: β-cell apoptosis (TUNEL, caspase 3 activation) in human islets, leptin/siRNA study; assay type: cell-based; details: for cleaved caspase 3 level: leptin
Description: as §1, §2
Western blot analysis. Human islets were maintained in culture medium in nonadherent plastic dishes. One day after isolation, the medium was changed and groups of 200 islets were incubated in culture medium containing 5.5 glucose with or without 10 or 500 nM leptin or 50 nM siRNA. At the end of the incubations, islets were washed in PBS, suspended in 40 μl sample buffer containing 125 mM Tris-HCl (pH 6.8), 4% SDS, 10% glycerol, 0.3% bromphenol blue, 1.8% β-mercaptoethanol and boiled for 5 min. Equivalent amounts of each treatment group were run on 15% SDS polyacrylamide gels. Proteins were electrically transferred to nitrocellulose filters and incubated with biotinylated goat anti-IL-1Ra, mouse anti-caspase 3 (which binds to both, procaspase-3 and activated caspase-3; Pharmingen, San Diego, Calif.), or mouse anti-actin (C-2; Santa Cruz Biotechnology Inc., Santa Cruz, Calif.) antibodies, followed by incubation with horseradish-peroxidase-linked anti-mouse (Santa Cruz Biotechnology Inc.) or streptavidin (Jackson). The emitted light was captured on X-ray film after adding Lumi-Light Western Blotting Substrate (Roche, Basel, Switzerland). As a marker, Kaleidoscope Prestained Standards (Bio Rad, Laboratories inc., Hercules, Calif.) was run in parallel. Between incubations, nitrocellulose membranes were stripped for 30 min at 50° C. in 40 ml of a solution containing 280 μl β-mercaptoethanol, 5 ml 0.5 M Tris-HCl (pH 6.8) and 10% SDS, and then washed for 1 h in Tris-buffered saline containing 0.10/0 Tween-20.
β-cell apoptosis. The free 3′-OH strand breaks resulting from DNA degradation were detected using the terminal deoxynucleotidyl transferase-mediated dUTP nick-end labeling (TUNEL) technique as described in detail (70;76;77). Thereafter, islets were incubated with guinea pig anti-insulin antibody as above, followed by detection using the streptavidin-biotin-peroxidase complex (Zymed Laboratories Inc., South San Francisco, Calif., USA). In parallel to the TUNEL reaction, apoptosis was confirmed by detection of caspase 3 activation as described above (Western blot analysis).

type I IL-1R = target: T1, type I IL-1R (Homo sapiens, UniProt P14778); details: read-out: Kd, binding to type I IL-1R; cited from earlier work
T1 sequence (P14778 18-569): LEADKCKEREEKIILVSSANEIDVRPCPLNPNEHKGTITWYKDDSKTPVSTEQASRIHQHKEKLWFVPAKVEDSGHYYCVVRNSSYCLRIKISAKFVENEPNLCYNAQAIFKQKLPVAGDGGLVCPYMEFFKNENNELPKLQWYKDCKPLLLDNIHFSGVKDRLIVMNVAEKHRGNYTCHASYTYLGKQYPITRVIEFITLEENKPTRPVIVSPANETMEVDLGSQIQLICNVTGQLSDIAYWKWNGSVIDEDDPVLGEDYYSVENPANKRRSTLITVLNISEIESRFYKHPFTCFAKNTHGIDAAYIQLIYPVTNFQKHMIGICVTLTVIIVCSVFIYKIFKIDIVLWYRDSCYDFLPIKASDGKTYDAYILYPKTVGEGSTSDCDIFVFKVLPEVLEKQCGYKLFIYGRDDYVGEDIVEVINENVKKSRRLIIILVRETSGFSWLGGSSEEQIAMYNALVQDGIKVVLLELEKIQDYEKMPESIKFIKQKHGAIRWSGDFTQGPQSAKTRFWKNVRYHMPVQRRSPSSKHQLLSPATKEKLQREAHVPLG

[1] = leptin plus exogenous rh IL-1Ra 500 ng/ml
[2] = plus 500 ng/ml exogenous rhIL-1Ra

| Substance | β-cell function and insulin content (human islets; [1]) | loss of acute glucose-stimulated insulin release by high glucose and/or siIL-1Ra (human islets; plus exogenous rh IL-1Ra) | insulin content (human islets; siIL-1Ra and/or high glucose plus rh IL-1Ra) | glucose stimulation of insulin release (human islets; siIL-1Ra at 5.5 mM glucose, co-incubation with exogenous rh IL-1Ra) | leptin-induced β-cell apoptosis (human islets β-cells; [1]) | β-cell apoptosis induced by 33.3 mM glucose alone (human islets β-cells; [2]) | β-cell apoptosis induced by 33.3 mM glucose and siIL-1Ra (human islets β-cells; [2]) | siIL-1Ra-induced DNA fragmentation (human islets β-cells; siIL-1Ra plus 500 ng/ml exogenous rhIL-1Ra) | Kd (type I IL-1R) | decrease of chronic insulin secretion during the culture period (human islets; leptin, 4 days) | glucose-stimulated insulin secretion (human islets; leptin, 4 days, 5.5 mM glucose) | insulin content (human islets; leptin, 4 days, 5.5 mM glucose) | number of TUNEL-positive β-cells (human islets β-cells; 10 nM leptin, 4 days) | 33.3 mM glucose-induced apoptosis (human islets β-cells; leptin plus 33.3 mM glucose, 4 days) | cleaved caspase 3 level (human islets β-cells; 15 hours) | cleaved caspase 3 level (human islets β-cells; 48 hours) |
| --- | --- | --- | --- | --- | --- | --- | --- | --- | --- | --- | --- | --- | --- | --- | --- | --- |
| Interleukin 1 receptor antagonist [IL-1Ra] | restored β-cell function and insulin content | partially prevented those effects | partially restored | restored glucose stimulation | prevented leptin-induced β-cell apoptosis | protected the β-cells from apoptosis | partially | prevented the effect of siIL-1Ra on DNA fragmentation | 0.2 nM |  |  |  |  |  |  |  |
| leptin: rh leptin (PeproTech); protein encoded by the ob gene |  |  |  |  |  |  |  |  |  | 41.65% | impaired glucose-stimulated insulin secretion | decreased insulin content | increased the number of TUNEL-positive β-cells | enhanced 33.3 mM glucose-induced apoptosis | did not change baseline cleaved caspase 3 level | an increase became apparent |
